# Measurements published in patent US7285564B2, “Substituted 4-amino-1-(pyridylmethyl)piperidine and related compounds” (Theravance, Inc., priority 2002, dated 2007).
# Biological target: T1, hM2 receptor (Homo sapiens, UniProt P08172)
# T1 construct: expressed in transfected cells; membranes prepared
# T1 sequence (P08172 1-466): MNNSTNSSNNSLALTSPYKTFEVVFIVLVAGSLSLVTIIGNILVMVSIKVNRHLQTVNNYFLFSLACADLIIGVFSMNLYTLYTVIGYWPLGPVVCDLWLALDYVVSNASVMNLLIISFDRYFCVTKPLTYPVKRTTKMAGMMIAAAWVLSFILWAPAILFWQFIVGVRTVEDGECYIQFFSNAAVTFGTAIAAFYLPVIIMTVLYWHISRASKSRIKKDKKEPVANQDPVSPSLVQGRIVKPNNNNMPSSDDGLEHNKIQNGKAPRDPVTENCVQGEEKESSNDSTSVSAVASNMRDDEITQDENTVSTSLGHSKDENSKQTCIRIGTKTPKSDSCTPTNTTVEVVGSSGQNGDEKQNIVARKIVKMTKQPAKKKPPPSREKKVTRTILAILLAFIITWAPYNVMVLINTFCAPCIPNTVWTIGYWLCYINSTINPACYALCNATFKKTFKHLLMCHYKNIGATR
# Experiment: Blockade of agonist-mediated GTPγ[35S] binding
# Assay type: biochemical
# Details: membranes of CHO-K1 cells expressing hM2; read-out: Ki for blockade of carbachol-mediated GTPγ[35S] binding
# Procedure: In this assay, the functional potency of a test compound was determined by measuring the ability of the test compound to block carbachol-stimulated GTPγ[^35S] binding in CHO-K1 cells expressing the hM2 receptor.
# CHO-K1 cells stably expressing the hM2 muscarinic receptor were grown in medium consisting of Hams F-12 media supplemented with 10% Fetal Bovine Serum and 500 μg/ml of Geneticin (G-418). Cells were incubated in a 5% CO2, humidified incubator at 37° C. Cells were grown to confluence and harvested with dPBS+2 mM EDTA and pelleted by centrifugation at 250×g for 10 minutes.
# Cells from the centrifuged pellets were resuspended in homogenization buffer (10 mM HEPES, 10 mM EDTA, pH 7 at 4° C.). […]
# To determine the ability of a test compound to inhibit carbachol-stimulated GTPγ[^35S] binding, the following was added to each well of 96 well plates: 25 μL of assay buffer with […] and GDP, 25 μL of diluted test compound (prepared as described above), and 25 μL CHO cell membranes expressing the hM2 receptor. […] After the pre-incubation period, 25 μL of carbachol at the final concentration of its EC90 value determined earlier in the day was added to each plate. […]
# Test compound potency (IC50) was determined using iterative curve fitting (GraphPad Prism 3.0 software; single site competition curve). […]
smiles,measurement,value
COc1ccncc1CN1CCC(N(CCCCCCCN2CC[C@@H](C(C(N)=O)(c3ccccc3)c3ccccc3)C2)C(C)C)CC1 [Example 1],Ki,< 1 nM
